Data on 21 compounds can be found in US20120172384A1, “HETEROCYCLYLAMINOPYRIMIDINES AS KINASE INHIBITORS” (priority 2009, published 2012).

One assay concerns the target T1, ZAP-70 (Homo sapiens, UniProt P43403).
T1 construct: endogenous in cells
T1 sequence (P43403 1-619): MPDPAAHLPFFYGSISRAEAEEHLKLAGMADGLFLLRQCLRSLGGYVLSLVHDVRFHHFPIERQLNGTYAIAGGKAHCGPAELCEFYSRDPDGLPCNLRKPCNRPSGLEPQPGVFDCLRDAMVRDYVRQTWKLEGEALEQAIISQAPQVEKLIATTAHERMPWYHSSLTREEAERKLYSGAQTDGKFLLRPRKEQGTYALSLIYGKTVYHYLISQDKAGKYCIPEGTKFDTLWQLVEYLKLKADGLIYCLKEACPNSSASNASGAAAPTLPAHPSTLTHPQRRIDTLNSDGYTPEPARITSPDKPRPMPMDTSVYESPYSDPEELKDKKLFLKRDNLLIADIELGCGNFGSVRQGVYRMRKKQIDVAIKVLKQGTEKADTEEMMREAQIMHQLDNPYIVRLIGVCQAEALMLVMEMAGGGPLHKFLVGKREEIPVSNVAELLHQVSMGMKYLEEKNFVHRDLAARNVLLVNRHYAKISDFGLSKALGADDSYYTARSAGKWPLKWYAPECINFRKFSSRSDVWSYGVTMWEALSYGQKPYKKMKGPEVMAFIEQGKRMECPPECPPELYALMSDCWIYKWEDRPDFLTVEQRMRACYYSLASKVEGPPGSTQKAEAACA
Nature of the assay: ZAP-70 kinobeads assay. The class given is binding. Particulars: cell lysate, dot blot with ZAP-70 antibody. On the procedure:
The compounds of the present invention as described in the previous examples were tested in the ZAP-70 kinobeads assay as described (EP-A 1862802 and WO-A 2007/137867). Briefly, test compounds (at various concentrations) and the affinity matrix with the immobilized aminopyrido-pyrimidine ligand 24 are added to cell lysate aliquots and allowed to bind to the proteins in the lysate sample. After the incubation time the beads with captured proteins are separated from the lysate. Bound proteins are then eluted and the presence ZAP-70 is detected and quantified using a specific antibody in a dot blot procedure and the Odyssey infrared detection system.

The next assay has as its target T2, JAK3 (Homo sapiens, UniProt P52333).
T2 construct: endogenous in cells
T2 sequence (P52333 1-1124): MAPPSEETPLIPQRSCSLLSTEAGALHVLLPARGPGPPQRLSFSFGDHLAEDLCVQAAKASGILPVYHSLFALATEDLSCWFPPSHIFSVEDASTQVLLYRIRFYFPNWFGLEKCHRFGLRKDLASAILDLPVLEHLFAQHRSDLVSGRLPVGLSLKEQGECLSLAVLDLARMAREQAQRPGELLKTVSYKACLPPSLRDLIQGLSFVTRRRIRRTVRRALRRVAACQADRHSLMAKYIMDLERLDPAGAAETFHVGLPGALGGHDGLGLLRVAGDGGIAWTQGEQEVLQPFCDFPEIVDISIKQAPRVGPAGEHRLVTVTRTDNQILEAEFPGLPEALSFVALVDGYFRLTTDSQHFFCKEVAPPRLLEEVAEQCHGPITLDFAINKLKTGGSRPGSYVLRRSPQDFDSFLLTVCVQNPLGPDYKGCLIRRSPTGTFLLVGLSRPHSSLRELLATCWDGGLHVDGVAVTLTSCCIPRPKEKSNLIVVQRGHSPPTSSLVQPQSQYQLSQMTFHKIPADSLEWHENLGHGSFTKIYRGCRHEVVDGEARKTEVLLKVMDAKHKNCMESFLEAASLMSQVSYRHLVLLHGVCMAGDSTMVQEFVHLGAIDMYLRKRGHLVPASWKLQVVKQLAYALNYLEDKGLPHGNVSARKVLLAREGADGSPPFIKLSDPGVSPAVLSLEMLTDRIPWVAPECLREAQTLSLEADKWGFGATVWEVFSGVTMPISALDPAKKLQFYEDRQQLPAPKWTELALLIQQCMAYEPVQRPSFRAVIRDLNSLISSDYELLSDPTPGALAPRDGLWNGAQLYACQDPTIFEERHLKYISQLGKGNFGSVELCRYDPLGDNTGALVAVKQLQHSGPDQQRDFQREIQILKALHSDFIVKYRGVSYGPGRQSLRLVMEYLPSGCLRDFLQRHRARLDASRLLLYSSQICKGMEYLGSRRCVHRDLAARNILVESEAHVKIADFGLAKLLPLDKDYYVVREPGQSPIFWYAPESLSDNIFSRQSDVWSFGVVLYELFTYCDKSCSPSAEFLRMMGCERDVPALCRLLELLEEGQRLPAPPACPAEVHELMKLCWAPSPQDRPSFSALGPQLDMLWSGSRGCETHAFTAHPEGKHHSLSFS
In words: JAK3 kinobeads assay. The conditions noted are these: cell lysate, dot blot with JAK3 specific antibody. Type of assay: binding. In outline:
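In this competition pulldown, test compounds at various concentrations were incubated in cell lysate together with beads carrying an immobilized aminopyrido-pyrimidine ligand. Bead-bound proteins were eluted, and JAK3 was quantified by dot blot with a JAK3-specific antibody and infrared detection.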

Where “and” joins values, the source holds several entries; their conditions need not be identical. Equal entries are not always repeated.

The term IC50 denotes the concentration needed to halve the response being measured. A low value points to greater potency in that assay. Turning to `CCn1cc(Nc2ncc(Cl)c(Nc3ccc(OC)cc3NS(C)(=O)=O)n2)c(C)n1` [Example 28, N-(2-(5-chloro-2-(1-ethyl-3-methyl-1H-pyrazol-4-ylamino)pyrimidin-4-ylamino)-5-methoxyphenyl)methanesulfonamide], the IC50 is 100 to 1000 nM against ZAP-70 and not above 100 nM on JAK3.
For `COc1ccc(Nc2nc(Nc3cn(C)nc3C)ncc2Cl)c(NS(C)(=O)=O)c1` [Example 18, N-(2-(5-chloro-2-(1,3-dimethyl-1H-pyrazol-4-ylamino)pyrimidin-4-ylamino)-5-methoxyphenyl)methanesulfonamide] the same measures were not above 100 nM and not above 100 nM.
For `COc1ccc(Nc2nc(Nc3nonc3C)ncc2Cl)c(NS(C)(=O)=O)c1` [Example 31, N-(2-(5-chloro-2-(4-methyl-1,2,5-oxadiazol-3-ylamino)pyrimidin-4-ylamino)-5-methoxyphenyl)methanesulfonamide] the same measures were 1000 to 10000 nM and 1000 to 10000 nM.
Turning to `COc1ccc(Nc2nc(Nc3ccon3)ncc2Cl)c(NS(C)(=O)=O)c1` [Example 3, N-(2-(5-chloro-2-(isoxazol-3-ylamino)pyrimidin-4-ylamino)-5-methoxyphenyl)methanesulfonamide], the half-inhibitory concentration (IC50) against ZAP-70 is 100 to 1000 nM; at JAK3, not above 100 nM.
The like results for `CS(=O)(=O)Nc1ccccc1Nc1nc(Nc2cnoc2)ncc1Cl` [Example 44, N-(2-((5-chloro-2-(isoxazol-4-ylamino)pyrimidin-4-yl)amino)phenyl)methanesulfonamide] were, in that order, 1000 to 10000 nM and 100 to 1000 nM.
The like results for `Cn1ccc(Nc2ncc(Cl)c(Nc3ccccc3NS(C)(=O)=O)n2)n1` [Example 16, N-(2-(5-chloro-2-(1-methyl-1H-pyrazol-3-ylamino)pyrimidin-4-ylamino)phenyl)methanesulfonamide] were, in that order, 100 to 1000 nM and not above 100 nM.
In the case of `COc1ccc(Nc2nc(Nc3ccn(C)n3)ncc2Cl)c(NS(C)(=O)=O)c1` [Example 4, N-(2-(5-chloro-2-(1-methyl-1H-pyrazol-3-ylamino)pyrimidin-4-ylamino)-5-methoxyphenyl)methanesulfonamide], the IC50 against ZAP-70 is 100 to 1000 nM; against JAK3 it was 100 to 1000 nM and ≤ 100 nM.
As for `CCn1cc(Nc2ncc(F)c(Nc3ccccc3NS(C)(=O)=O)n2)c(C)n1` [Example 37, N-(2-(2-(1-ethyl-3-methyl-1H-pyrazol-4-ylamino)-5-fluoropyrimidin-4-ylamino)phenyl)methanesulfonamide], the values for the IC50 against ZAP-70 and against JAK3 were 1000 to 10000 nM and 100 to 1000 nM, respectively.
The like results for `COc1ccc(Nc2nc(Nc3cc(C)nn3CCO)ncc2Cl)c(NS(C)(=O)=O)c1` [Example 94, N-(2-((5-chloro-2-((1-(2-hydroxyethyl)-3-methyl-1H-pyrazol-5-yl)amino)pyrimidin-4-yl)amino)-5-methoxyphenyl)methanesulfonamide] were, in that order, 100 to 1000 nM and 1000 to 10000 nM.
For `COc1ccc(Nc2nc(Nc3ccnn3C)ncc2Cl)c(NS(C)(=O)=O)c1` [Example 5, N-(2-(5-chloro-2-(1-methyl-1H-pyrazol-5-ylamino)pyrimidin-4-ylamino)-5-methoxyphenyl)methanesulfonamide] the same measures were not above 100 nM and 100 to 1000 nM.
For `COc1ccc(Nc2nc(Nc3c[nH]nc3C)ncc2Cl)c(NS(C)(=O)=O)c1` [Example 2, N-(2-(5-chloro-2-(3-methyl-1H-pyrazol-4-ylamino)pyrimidin-4-ylamino)-5-methoxyphenyl)methanesulfonamide] the same measures were not above 100 nM and not above 100 nM.
For the compound `CC(C)n1ccc(Nc2ncc(Cl)c(Nc3ccccc3NS(C)(=O)=O)n2)n1` [Example 40, N-(2-(5-chloro-2-(1-isopropyl-1H-pyrazol-3-ylamino)pyrimidin-4-ylamino)phenyl)methanesulfonamide], the IC50 against ZAP-70 was 100 to 1000 nM; on JAK3 it was not above 100 nM.
For `COc1ccc(Nc2nc(Nc3ccn(C)n3)ncc2F)c(NS(C)(=O)=O)c1` [Example 7, N-(2-(5-fluoro-2-(1-methyl-1H-pyrazol-3-ylamino)pyrimidin-4-ylamino)-5-methoxyphenyl)methanesulfonamide] the same measures were 100 to 1000 nM and 100 to 1000 nM.
The like results for `Cc1cc(Nc2ncc(Cl)c(Nc3ccccc3NS(C)(=O)=O)n2)nn1C` [Example 39, N-(2-(5-chloro-2-(1,5-dimethyl-1H-pyrazol-3-ylamino)pyrimidin-4-ylamino)phenyl)methanesulfonamide] were, in that order, 100 to 1000 nM and not above 100 nM.
For `COc1ccc(Nc2nc(Nc3cc(C)nn3C)ncc2Cl)c(NS(C)(=O)=O)c1` [Example 8, N-(2-(5-chloro-2-(1,3-dimethyl-1H-pyrazol-5-ylamino)pyrimidin-4-ylamino)-5-methoxyphenyl)methanesulfonamide] the same measures were not above 100 nM and not above 100 nM.
Take `Cn1ccc(Nc2ncc(F)c(Nc3ccccc3NS(C)(=O)=O)n2)n1` [Example 1, N-(2-(5-fluoro-2-(1-methyl-1H-pyrazol-3-ylamino)pyrimidin-4-ylamino)phenyl)methanesulfonamide]: the IC50 was in the range of 1000 to 10000 nM against ZAP-70 and 100 to 1000 nM against JAK3.
For `COc1ccc(Nc2nc(Nc3nonc3OC)ncc2Cl)c(NS(C)(=O)=O)c1` [Example 17, N-(2-(5-chloro-2-(4-methoxy-1,2,5-oxadiazol-3-ylamino)pyrimidin-4-ylamino)-5-methoxyphenyl)methanesulfonamide] the same measures were 1000 to 10000 nM and 1000 to 10000 nM.
Take `CS(=O)(=O)Nc1ccccc1Nc1nc(Nc2ccon2)ncc1Cl` [Example 38, N-(2-(5-chloro-2-(isoxazol-3-ylamino)pyrimidin-4-ylamino)phenyl)methanesulfonamide]: the concentration for half-maximal inhibition (IC50) on ZAP-70 was 1000 to 10000 nM; on JAK3, not above 100 nM.
For `COCCn1nc(C)cc1Nc1ncc(Cl)c(Nc2ccc(OC)cc2NS(C)(=O)=O)n1` [Example 96, N-(2-((5-chloro-2-((1-(2-methoxyethyl)-3-methyl-1H-pyrazol-5-yl)amino)pyrimidin-4-yl)amino)-5-methoxyphenyl)methanesulfonamide] the same measures were 100 to 1000 nM and 1000 to 10000 nM.
In the case of `Cn1cc(Nc2ncc(Cl)c(Nc3ccccc3NS(C)(=O)=O)n2)cn1` [Example 20, N-(2-(5-chloro-2-(1-methyl-1H-pyrazol-4-ylamino)pyrimidin-4-ylamino)phenyl)methanesulfonamide], the half-inhibitory concentration (IC50) against ZAP-70 was 100 to 1000 nM; against JAK3 it was not above 100 nM.
For `Cn1cc(Nc2ncc(Br)c(Nc3ccccc3NS(C)(=O)=O)n2)cn1` [Example 41, N-(2-(5-bromo-2-(1-methyl-1H-pyrazol-4-ylamino)pyrimidin-4-ylamino)phenyl)methanesulfonamide] the same measures were 100 to 1000 nM and not above 100 nM.
